The values that follow are results of earlier work, collected in US20220054467A1, “TREATMENT OF PSORIASIS WITH TOPICAL TAPINAROF-TAZAROTENE COMBINATION COMPOSITIONS” (Sol-Gel Technologies Ltd., priority 2019, published 2022).

Read-outs that look alike come from different tables or passages of the source.

Data set [1] deals with interleukin-6 and interleukin-17A. Particulars: in vitro human skin.
Data set [2] has the same test system. Particulars: mouse models.
The conditions of data set [3]: as a single drug; placebo 20.2%.
[4] abbreviates: 1% tapinarof arm vs. the 0.5% arm or vehicle.

In the case of `CC(C)c1c(O)cc(/C=C/c2ccccc2)cc1O` [Tapinarof, 3,5-dihydroxy-4-isopropyl-trans-stilbene], in data set [1], the “effect on proinflammatory mediators, including interleukin-6 and interleukin-17A” value is “inhibit specific proinflammatory mediators”; the “effect on skin barrier function” value is listed as “enhance skin barrier function”. In addition, in data set [2], the “effect on proinflammatory mediators, including interleukin-6 and interleukin-17A” value was “inhibit specific proinflammatory mediators”; the “effect on skin barrier function” value is given as “enhance skin barrier function”. In the data set on plaque psoriasis (setting [4]), the efficacy entry was “higher efficacy” and the onset of action result is reported as “quicker onset of action”. For the same compound, the “most frequent adverse events” value in the data set on plaque psoriasis (topical cream, clinical studies) is “folliculitis and contact dermatitis”. Also, the adverse effects in data set [3] was 44.5%.
As to `C=C1/C(=C\C=C2/CCC[C@]3(C)[C@@H]([C@H](C)/C=C/[C@@H](O)C4CC4)CC[C@@H]23)C[C@@H](O)C[C@@H]1O` [calcipotriene], the adverse effects in data set [3] is 19.5%.
